One test has as its system RS4;11 cells. The experiment in a line: Cell viability assay (CellTiter-Glo) in RS4;11 cell line. The class given is cell-based. The following applies: 24 hours, 10% Human Serum, 50% decrease in cell viability. The essentials: (§1)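 RS4;11 or Molt-4 cells (3000 per well) in RPMI 1640 with 10% human serum treated with compound for 24 h, 5% CO2. Viability measured by CellTiter-Glo as percent of control; EC50 from sigmoidal dose-response curves.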
On the technique in general: In ATP-based viability assays light output follows the ATP content of the culture.

The test system of the next test is Molt-4 cells. As to the kind of experiment: Cell viability counter screen assay (CellTiter-Glo) in Molt-4 cells. The class given is cell-based. To be noted: 24 hours, 10% Human Serum, 50% decrease in cell viability. A digest of the protocol: as §1
On the technique in general: Counterscreens check selectivity or assay interference.

With `COCCO[C@H]1CC[C@H](CNc2ccc(S(=O)(=O)NC(=O)c3ccc(N4CCN5CC6=C(c7ccc(Cl)cc7)CC(C)(C)C[C@H]6OCCCOC[C@@H]5C4)cc3N3CCCOc4nc5[nH]ccc5cc43)cc2[N+](=O)[O-])OC1` [Example 35, 4-((4aS,10aR)-14-(4-chlorophenyl)-12,12-dimethyl-1,2,4a,5,8,9,10a,11,13,15-decahydro-7H,12H-benzo[f]pyrazino[2,1-c][1,8]dioxa[4]azacycloundecin-3(4H)-yl)-2-(3,4-dihydro-2H-pyrrolo[3′,2′:5,6]pyrido[2,3-b][1,4]oxazepin-1(7H)-yl)-N-((4-((((2R,5S)-5-(2-methoxyethoxy)tetrahydro-2H-pyran-2-yl)methyl)amino)-3-nitrophenyl)sulfonyl)benzamide], the EC50 is 1.47 nM in the test on RS4;11 cells and 1740 nM with Molt-4 cells.

`COCCN1CCC(F)(COc2ncc(S(=O)(=O)NC(=O)c3ccc(N4CCN5CC6=C(c7ccc(Cl)cc7)CC(C)(C)C[C@H]6OCCCOC[C@@H]5C4)cc3N3CCCOc4nc5[nH]ccc5cc43)cc2Cl)CC1` [Example 22, N-((5-chloro-6-((4-fluoro-1-(2-methoxyethyl)piperidin-4-yl)methoxy)pyridin-3-yl)sulfonyl)-4-((4aS,10aR)-14-(4-chlorophenyl)-12,12-dimethyl-1,2,4a,5,8,9,10a,11,13,15-decahydro-7H,12H-benzo[f]pyrazino[2,1-c][1,8]dioxa[4]azacycloundecin-3(4H)-yl)-2-(3,4-dihydro-2H-pyrrolo[3′,2′:5,6]pyrido[2,3-b][1,4]oxazepin-1(7H)-yl)benzamide]: the EC50 was determined as 2.78 nM in the test on RS4;11 cells and 755 nM in the test on Molt-4 cells.

Regarding `CO[C@H]1C[C@H](CNc2ccc(S(=O)(=O)NC(=O)c3ccc(N4CCN5CC6=C(c7ccc(Cl)cc7)CC(C)(C)C[C@H]6OCCCOC[C@@H]5C4)cc3N3CCCOc4nc5[nH]ccc5cc43)cc2[N+](=O)[O-])C1` [Example 41, 4-((4aS,10aR)-14-(4-chlorophenyl)-12,12-dimethyl-1,2,4a,5,8,9,10a,11,13,15-decahydro-7H,12H-benzo[f]pyrazino[2,1-c][1,8]dioxa[4]azacycloundecin-3(4H)-yl)-2-(3,4-dihydro-2H-pyrrolo[3′,2′:5,6]pyrido[2,3-h][1,4]oxazepin-1(7H)-yl)-N-((4-((((1r,3r)-3-methoxycyclobutyl)methyl)amino)-3-nitrophenyl)sulfonyl)benzamide], the EC50 in the test with RS4;11 cells is 3.93 nM; with Molt-4 cells, greater than 10000 nM.

Regarding `C[C@@H]1CO[C@@H](COc2ccc(S(=O)(=O)NC(=O)c3ccc(N4CCN5CC6=C(c7ccc(Cl)cc7)CC(C)(C)C[C@H]6OCCCOC[C@@H]5C4)cc3N3CCCOc4nc5[nH]ccc5cc43)cc2[N+](=O)[O-])CO1` [Example 20, 4-((4aS,10aR)-14-(4-chlorophenyl)-12,12-dimethyl-1,2,4a,5,8,9,10a,11,13,15-decahydro-7H,12H-benzo[f]pyrazino[2,1-c][1,8]dioxa[4]azacycloundecin-3(4H)-yl)-2-(3,4-dihydro-2H-pyrrolo[3′,2′:5,6]pyrido[2,3-b][1,4]oxazepin-1(7H)-yl)-N-((4-(((2R,5R)-5-methyl-1,4-dioxan-2-yl)methoxy)-3-nitrophenyl)sulfonyl)benzamide], the EC50 in the test with RS4;11 cells worked out at 5.21 nM; in the test on Molt-4 cells, 1610 nM.

On to `C[C@H]1CC[C@H](CNc2ccc(S(=O)(=O)NC(=O)c3ccc(N4CCN5CC6=C(c7ccc(Cl)cc7)CC(C)(C)C[C@H]6OCCCOC[C@@H]5C4)cc3N3CCCOc4nc5[nH]ccc5cc43)cc2[N+](=O)[O-])OC1` [Example 23, 4-((4aS,10aR)-14-(4-chlorophenyl)-12,12-dimethyl-1,2,4a,5,8,9,10a,11,13,15-decahydro-7H,12H-benzo[f]pyrazino[2,1-c][1,8]dioxa[4]azacycloundecin-3(4H)-yl)-2-(3,4-dihydro-2H-pyrrolo[3′,2′:5,6]pyrido[2,3-h][1,4]oxazepin-1(7H)-yl)-N-((4-((((2R,5S)-5-methyltetrahydro-2H-pyran-2-yl)methyl)amino)-3-nitrophenyl)sulfonyl)benzamide], for which the EC50 in the test with RS4;11 cells was 5.29 nM; in the test with Molt-4 cells, greater than 10000 nM.

Take `CC1(C)CC(c2ccc(Cl)cc2)=C2CN3CCN(c4ccc(C(=O)NS(=O)(=O)c5ccc(NCC6(O)CCOCC6)c([N+](=O)[O-])c5)c(N5CCCOc6nc7[nH]ccc7cc65)c4)C[C@H]3COCCCO[C@@H]2C1` [Example 18, 4-((4aS,10aR)-14-(4-chlorophenyl)-12,12-dimethyl-1,2,4a,5,8,9,10a,11,13,15-decahydro-7H,12H-benzo[f]pyrazino[2,1-c][1,8]dioxa[4]azacycloundecin-3(4H)-yl)-2-(3,4-dihydro-2H-pyrrolo[3′,2′:5,6]pyrido[2,3-b][1,4]oxazepin-1(7H)-yl)-N-((4-(((4-hydroxytetrahydro-2H-pyran-4-yl)methyl)amino)-3-nitrophenyl)sulfonyl)benzamide]: the half-maximal effective concentration (EC50) with RS4;11 cells turned out to be 1.43 nM; in the test with Molt-4 cells, 426 nM.

Consider `CC1(C)CC(c2ccc(Cl)cc2)=C2CN3CCN(c4ccc(C(=O)NS(=O)(=O)c5ccc(NC[C@H]6CC[C@](C)(O)CO6)c([N+](=O)[O-])c5)c(N5CCCOc6nc7[nH]ccc7cc65)c4)C[C@H]3COCCCO[C@@H]2C1` [Example 2, 4-((4aS,10aR)-14-(4-chlorophenyl)-12,12-dimethyl-1,2,4a,5,8,9,10a,11,13,15-decahydro-7H,12H-benzo[f]pyrazino[2,1-c][1,8]dioxa[4]azacycloundecin-3(4H)-yl)-2-(3,4-dihydro-2H-pyrrolo[3′,2′:5,6]pyrido[2,3-h][1,4]oxazepin-1(7H)-yl)-N-((4-((((2R,5S)-5-hydroxy-5-methyltetrahydro-2H-pyran-2-yl)methyl)amino)-3-nitrophenyl)sulfonyl)benzamide], for which the EC50 was 0.651 nM in the test with RS4;11 cells and 1220 nM in the test on Molt-4 cells.

Consider `CC1(C)CC(c2ccc(Cl)cc2)=C2CN3CCN(c4ccc(C(=O)NS(=O)(=O)c5ccc(NC[C@H]6CC[C@H](N7CCOCC7)CO6)c([N+](=O)[O-])c5)c(N5CCCOc6nc7[nH]ccc7cc65)c4)C[C@H]3COCCCO[C@@H]2C1` [Example 37, 4-((4aS,10aR)-14-(4-chlorophenyl)-12,12-dimethyl-1,2,4a,5,8,9,10a,11,13,15-decahydro-7H,12H-benzo[f]pyrazino[2,1-c][1,8]dioxa[4]azacycloundecin-3(4H)-yl)-2-(3,4-dihydro-2H-pyrrolo[3′,2′:5,6]pyrido[2,3-b][1,4]oxazepin-1(7H)-yl)-N-((4-((((2R,5S)-5-morpholinotetrahydro-2H-pyran-2-yl)methyl)amino)-3-nitrophenyl)sulfonyl)benzamide], for which the EC50 in the test with RS4;11 cells amounted to 1.05 nM; in the test on Molt-4 cells it was 1450 nM.

Take `CC1(C)CC(c2ccc(Cl)cc2)=C2CN3CCN(c4ccc(C(=O)NS(=O)(=O)c5cnc(OCC6(F)CCN(C7COC7)CC6)c(Cl)c5)c(N5CCCOc6nc7[nH]ccc7cc65)c4)C[C@H]3COCCCO[C@@H]2C1` [Example 4, N-((5-chloro-6-((4-fluoro-1-(oxetan-3-yl)piperidin-4-yl)methoxy)pyridin-3-yl)sulfonyl)-4-((4aS,10aR)-14-(4-chlorophenyl)-12,12-dimethyl-1,2,4a,5,8,9,10a,11,13,15-decahydro-7H,12H-benzo[f]pyrazino[2,1-c][1,8]dioxa[4]azacycloundecin-3(4H)-yl)-2-(3,4-dihydro-2H-pyrrolo[3′,2′:5,6]pyrido[2,3-b][1,4]oxazepin-1(7H)-yl)benzamide]: the EC50 in the test on RS4;11 cells is 2.35 nM; in the test with Molt-4 cells, 2000 nM.

Take `CC1(C)CC(c2ccc(Cl)cc2)=C2CN3CCN(c4ccc(C(=O)NS(=O)(=O)c5ccc(NC[C@H]6C[C@](O)(C7CCC7)C6)c([N+](=O)[O-])c5)c(N5CCCOc6nc7[nH]ccc7cc65)c4)C[C@H]3COCCCO[C@@H]2C1` [Example 15, 4-((4aS,10aR)-14-(4-chlorophenyl)-12,12-dimethyl-1,2,4a,5,8,9,10a,11,13,15-decahydro-7H,12H-benzo[f]pyrazino[2,1-c][1,8]dioxa[4]azacycloundecin-3(4H)-yl)-2-(3,4-dihydro-2H-pyrrolo[3′,2′:5,6]pyrido[2,3-h][1,4]oxazepin-1(7H)-yl)-N-((4-((((1s,3s)-1-hydroxy-[1,1′-bi(cyclobutan)]-3-yl)methyl)amino)-3-nitrophenyl)sulfonyl)benzamide]: the figures for the EC50 in the test with RS4;11 cells and in the test on Molt-4 cells were 5.64 nM and 2550 nM, respectively.

Consider `CO[C@H]1C[C@@H](CNc2ccc(S(=O)(=O)NC(=O)c3ccc(N4CCN5CC6=C(c7ccc(Cl)cc7)CC(C)(C)C[C@H]6OCCCOC[C@@H]5C4)cc3N3CCCOc4nc5[nH]ccc5cc43)cc2[N+](=O)[O-])C1` [Example 24], for which the values for the EC50 in the test with RS4;11 cells and in the test on Molt-4 cells were 4.9 nM and greater than 10000 nM, respectively.

As to `CC1(C)CC(c2ccc(Cl)cc2)=C2CN3CCN(c4ccc(C(=O)NS(=O)(=O)c5ccc(OCC6(F)CCN(C7COC7)CC6)c([N+](=O)[O-])c5)c(N5CCCOc6nc7[nH]ccc7cc65)c4)C[C@H]3COCCCO[C@@H]2C1` [Example 19, 4-((4aS,10aR)-14-(4-chlorophenyl)-12,12-dimethyl-1,2,4a,5,8,9,10a,11,13,15-decahydro-7H,12H-benzo[f]pyrazino[2,1-c][1,8]dioxa[4]azacycloundecin-3(4H)-yl)-2-(3,4-dihydro-2H-pyrrolo[3′,2′:5,6]pyrido[2,3-b][1,4]oxazepin-1(7H)-yl)-N-((4-((4-fluoro-1-(oxetan-3-yl)piperidin-4-yl)methoxy)-3-nitrophenyl)sulfonyl)benzamide], the results for the EC50 in the test on RS4;11 cells and in the test on Molt-4 cells were 0.881 nM and 132 nM, respectively.

Turning to `CO[C@H]1CC[C@H](COc2ccc(S(=O)(=O)NC(=O)c3ccc(N4CCN5CC6=C(c7ccc(Cl)cc7)CC(C)(C)C[C@H]6OCCCOC[C@@H]5C4)cc3N3CCCOc4nc5[nH]ccc5cc43)cc2[N+](=O)[O-])OC1` [Example 33, 4-((4aS,10aR)-14-(4-chlorophenyl)-12,12-dimethyl-1,2,4a,5,8,9,10a,11,13,15-decahydro-7H,12H-benzo[f]pyrazino[2,1-c][1,8]dioxa[4]azacycloundecin-3(4H)-yl)-2-(3,4-dihydro-2H-pyrrolo[3′,2′:5,6]pyrido[2,3-b][1,4]oxazepin-1(7H)-yl)-N-((4-(((2R,5S)-5-methoxytetrahydro-2H-pyran-2-yl)methoxy)-3-nitrophenyl)sulfonyl)benzamide], the 50% effective concentration (EC50) with RS4;11 cells came out at 3.49 nM; in the test with Molt-4 cells, 6080 nM.

For orientation: EC50 means the concentration that produces a half-maximal response. The low end stands for greater potency, the high end for weaker potency.

The values above are taken from US11964990B2, “1,3,4,7-tetrahydro-2H-pyrrolo[3′,2′:5,6]pyrido[2,3-b][1,4]oxazepine bcl-2 inhibitors” (AbbVie Inc., priority 2022, dated 2024).
